Measured values as given in patent publication US10703733B2, “MCL-1 inhibitors” (Gilead Sciences, Inc., priority 2018, dated 2020).

Target: MCL-1/Bim interaction (recombinant human MCL-1 protein, residues 171-327; biotinylated human Bim peptide, residues 51-76) (Homo sapiens (Human), UniProt Q07820)
Test: MCL-1/Bim Binding AlphaLISA Assay
Details: 0.0625 nM 6xHis-Mcl-1 (171-327), 0.0625 nM biotinylated-Bim peptide
Protocol: MCL-1/Bim Binding AlphaLISA Assay.
Inhibition of the MCL-1 and Bim interaction was measured in the following AlphaLISA assay.
Recombinant human MCL-1 protein (C-terminal 6×His Tagged Mcl-1 containing residues 171-327) was generated at Gilead Sciences, Inc. (Foster City, Calif.). A biotinylated peptide derived from human Bim (residues 51-76) was purchased from CPC Scientific (Sunnyvale, Calif.). (CPC 834113). AlphaLISA anti-6His-acceptor beads (AL128R), AlphaScreen Streptavidin donor beads (6760002B), and Proxiplate-384 Plus (6008289) were purchased from PerkinElmer.
The AlphaLISA assay was performed in a 384-well Proxiplate in a total volume of […]. The reaction mixture contained 0.0625 nM 6×His-Mcl-1 (171-327), 0.0625 nM biotinylated-Bim peptide, 10 μg/mL AlphaLISA anti-6×His-AlphaLISA acceptor beads, […] AlphaScreen streptavidin donor beads, and serially diluted test compounds in the binding buffer (20 mM Hepes, pH 7.5 (Teknova H1035); 150 mM NaCl (Promega V4221); 0.002% Brij 35 (Thermo Scientific 20150); 1 mM Dithiothreitol (DTT) Solution (Affymetrix 70726); 0.01% BSA (BioLabs B9000S)). 1,000×test compounds were pre-spotted onto 384-well Proxiplate (Labcyte Echo) by Echo 555 Liquid Handler (Labcyte Inc., San Jose, Calif.) followed by incubation of 5 μl Mcl-1(171-327) for 1 hour. Then 5 μL Bim (51-76) was added and incubated for 2 hours. Five μL AlphaLISA anti-6His-AlphaLISA acceptor beads were then added for 1 hour followed by addition of 5 μL AlphaScreen streptavidin donor beads for 1 hour. The reaction plates were then read on an Envision multimode reader (PerkinElmer) using AlphaScreen settings. […] Percent inhibition was calculated as shown below: % Inhibition=100%*(Well−Neg)/(Pos−Neg) Neg: negative control, DMSO Pos: positive control, no Mcl-1 protein, no biotinylated-Bim peptide

MCL-1/Bim interaction (recombinant human MCL-1 protein, residues 171-327; biotinylated human Bim peptide, residues 51-76), sequence (Q07820 171-327): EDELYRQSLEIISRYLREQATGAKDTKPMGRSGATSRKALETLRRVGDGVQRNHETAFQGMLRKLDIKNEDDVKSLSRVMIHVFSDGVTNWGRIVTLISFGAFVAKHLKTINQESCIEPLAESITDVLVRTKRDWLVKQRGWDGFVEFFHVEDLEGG

Compound	IC50 [nM]
COCCO[C@H]1/C=C/[C@H](OC)[C@@H]2CC[C@H]2CN2C[C@@]3(CCCc4cc(Cl)ccc43)COc3ccc(cc32)C(=O)N=[S@](=O)(NC(=O)c2cn(C)nc2OC)C[C@H]1C [Example 291]	0.039
CO[C@H]1/C=C/C[C@H](C)[C@@H](C)[S@@](=O)(NC(=O)COC2CCOCC2)=NC(=O)c2ccc3c(c2)N(C[C@@H]2CC[C@H]21)C[C@@]1(CCCc2cc(Cl)ccc21)CO3 [Example 108]	0.1
COCCOc1nn(C)cc1C(=O)N[S@@]1(=O)=NC(=O)c2ccc3c(c2)N(C[C@@H]2CC[C@H]2[C@@H](OC)/C=C/C[C@H](C)C1)C[C@@]1(CCCc2cc(Cl)ccc21)CO3 [Example 216]	0.196
COC1CCCn2cc(C(=O)N[S@@]3(=O)=NC(=O)c4ccc5c(c4)N(C[C@@H]4CC[C@H]4[C@@H](OC)/C=C/C[C@H](C)C3)C[C@@]3(CCCc4cc(Cl)ccc43)CO5)cc2C1 (stereo partly drawn) [Example 190]	0.055
C[C@@H]1[C@@H](C)C/C=C/[C@H](O)[C@@H]2CC[C@H]2CN2C[C@@]3(CCCc4cc(Cl)ccc43)COc3ccc(cc32)C(=O)N=[S@]1(=O)NC(=O)c1cc2n(c1)CC1(COC1)OC2 [Example 239]	0.042
COc1nn(C)cc1C(=O)N[S@@]1(=O)=NC(=O)c2ccc3c(c2)N(C[C@@H]2CC[C@H]2[C@@H](OC)/C=C/C[C@H](C)C1)C[C@@]1(CCCc2cc(Cl)ccc21)CO3 [Example 154]	0.05
CO[C@H]1/C=C/C[C@H](C)C[S@@](=O)(NC(=O)NCC2CC2)=NC(=O)c2ccc3c(c2)N(C[C@@H]2CC[C@H]21)C[C@@]1(CCCc2cc(Cl)ccc21)CN3 [Example 107]	0.1
C[C@@H]1[C@@H](C)C/C=C/[C@H](O)[C@@H]2CC[C@H]2CN2C[C@@]3(CCCc4cc(Cl)ccc43)COc3ccc(cc32)C(=O)N=[S@]1(=O)NC(=O)N[C@@H]1C[C@H]1C(F)F [Example 260]	0.061
C[C@@H]1[C@@H](C)C/C=C/[C@H](O)[C@@H]2CC[C@H]2CN2C[C@@]3(CCCc4cc(Cl)ccc43)COc3ccc(cc32)C(=O)N=[S@]1(=O)NC(=O)c1cc2n(c1)CC(C)(CN1CCOCC1)OC2 (stereo partly drawn) [Example 259]	0.098
CO[C@H]1/C=C/C[C@H](C)C[S@@](=O)(NC(=O)c2cnn(C3CC3)c2)=NC(=O)c2ccc3c(c2)N(C[C@@H]2CC[C@H]21)C[C@@]1(CCCc2cc(Cl)ccc21)CO3 [Example 151]	0.036
C[C@@H]1[C@@H](C)C/C=C/[C@H](O)[C@@H]2CC[C@H]2CN2C[C@@]3(CCCc4cc(Cl)ccc43)COc3ccc(cc32)C(=O)N=[S@]1(=O)NC(=O)c1cc2n(c1)CC(C)(C)OC2 [Example 264]	0.263
COc1nn(C)cc1C(=O)N[S@@]1(=O)=NC(=O)c2ccc3c(c2)N(C[C@@H]2CC[C@H]2[C@@H](OC)/C=C/[C@H](O)[C@H](C)C1)C[C@@]1(CCCc2cc(Cl)ccc21)CO3 [Example 279]	0.041
COC[C@H]1Cn2cc(C(=O)N[S@@]3(=O)=NC(=O)c4ccc5c(c4)N(C[C@@H]4CC[C@H]4[C@@H](OC)/C=C/C[C@H](C)[C@H]3C)C[C@@]3(CCCc4cc(Cl)ccc43)CO5)cc2CO1 [Example 215]	0.203
COc1nn(C)cc1C(=O)NS1(=O)=NC(=O)c2ccc3c(c2)N(C[C@@H]2CC[C@H]2[C@@H](OC)/C=C/C[C@H](C)C1)C[C@@]1(CCCc2cc(Cl)ccc21)CO3 (single isomer, unassigned) [Example 388]	1.06
COCC1(C)Cn2cc(C(=O)N[S@@]3(=O)=NC(=O)c4ccc5c(c4)N(C[C@@H]4CC[C@H]4[C@@H](O)/C=C/C[C@H](C)[C@H]3C)C[C@@]3(CCCc4cc(Cl)ccc43)CO5)cc2CO1 (stereo partly drawn) [Example 255]	0.096
CO[C@H]1/C=C/C[C@H](C)C[S@@](=O)(NC(=O)COC2CCOCC2)=NC(=O)c2ccc3c(c2)N(C[C@@H]2CC[C@H]21)C[C@@]1(CCCc2cc(Cl)ccc21)CO3 [Example 106]	0.1
CCOc1nn(C)cc1C(=O)N[S@@]1(=O)=NC(=O)c2ccc3c(c2)N(C[C@@H]2CC[C@H]2[C@@H](OC)/C=C/C[C@H](C)C1)C[C@@]1(CCCc2cc(Cl)ccc21)CO3 [Example 194]	0.03
COc1nnc(C)cc1C(=O)N[S@@]1(=O)=NC(=O)c2ccc3c(c2)N(C[C@@H]2CC[C@H]2[C@@H](OC)/C=C/C[C@H](C)C1)C[C@@]1(CCCc2cc(Cl)ccc21)CO3 [Example 460]	0.089
CO[C@H]1/C=C/C[C@H](C)C[S@@](=O)(NC(=O)c2cc(CN(C)C3CCOCC3)n(C)c2)=NC(=O)c2ccc3c(c2)N(C[C@@H]2CC[C@H]21)C[C@@]1(CCCc2cc(Cl)ccc21)CO3 [Example 241]	0.087
CO[C@H]1/C=C/C[C@H](C)C[S@@](=O)(NC(=O)N2CC(Oc3ccccn3)C2)=NC(=O)c2ccc3c(c2)N(C[C@@H]2CC[C@H]21)C[C@@]1(CCCc2cc(Cl)ccc21)CO3 [Example 463]	0.219

Now from value to compound:

IC50 [nM]	Compound
2.63	CO[C@H]1/C=C/C[C@H](C)[C@@H](C)[S@](N)(=O)=NC(=O)c2ccc3c(c2)N(C[C@@H]2CC[C@H]21)C[C@@]1(CCCc2cc(Cl)ccc21)CO3 (single isomer, unassigned) [Example 110]
0.046	CO[C@H]1/C=C/C[C@H](C)C[S@@](=O)(NC(=O)N[C@H]2C[C@@](C)(OC)C2)=NC(=O)c2ccc3c(c2)N(C[C@@H]2CC[C@H]21)C[C@@]1(CCCc2cc(Cl)ccc21)CO3 [Example 193]
0.064	COC[C@H]1C[C@H](NC(=O)N[S@@]2(=O)=NC(=O)c3ccc4c(c3)N(C[C@@H]3CC[C@H]3[C@@H](OC)/C=C/C[C@H](C)C2)C[C@@]2(CCCc3cc(Cl)ccc32)CO4)C1 [Example 200]
0.113	CO[C@H]1/C=C/C[C@H](C)[C@@H](C)[S@@](=O)(NC(=O)COC2COC2)=NC(=O)c2ccc3c(c2)N(C[C@@H]2CC[C@H]21)C[C@@]1(CCCc2cc(Cl)ccc21)CO3 [Example 407]
0.046	CO[C@H]1/C=C/CCC[S@@](=O)(NC(=O)c2cnn(C)c2)=NC(=O)c2ccc3c(c2)N(C[C@@H]2CC[C@H]21)C[C@@]1(CCCc2cc(Cl)ccc21)CO3 [Example 113]
0.047	CO[C@H]1/C=C/C[C@H](C)C[S@@](=O)(NC(=O)N[C@H]2[C@@H]3COC[C@@H]32)=NC(=O)c2ccc3c(c2)N(C[C@@H]2CC[C@H]21)C[C@@]1(CCCc2cc(Cl)ccc21)CO3 [Example 206]
0.7	COCC(=O)NS1(=O)=NC(=O)c2ccc3c(c2)N(C[C@@H]2CC[C@H]2[C@@H](OC)/C=C/CCC1)C[C@@]1(CCCc2cc(Cl)ccc21)CO3 (single isomer, unassigned) [Example 8]
10.6	CO[C@H]1/C=C/C[C@H](C)C[S@](N)(=O)=NC(=O)c2ccc3c(c2)N(C[C@@H]2CC[C@H]21)C[C@@]1(CCCc2cc(Cl)ccc21)CO3 (single isomer, unassigned) [Example 109]
0.1	CCn1cc(C(=O)N[S@@]2(=O)=NC(=O)c3ccc4c(c3)N(C[C@@H]3CC[C@H]3[C@@H](OC)/C=C/CCC2)C[C@@]2(CCCc3cc(Cl)ccc32)CO4)cn1 [Example 104]
0.068	CO[C@H]1/C=C/C[C@H](C)C[S@@](=O)(NC(=O)N[C@H]2C[C@H]2F)=NC(=O)c2ccc3c(c2)N(C[C@@H]2CC[C@H]21)C[C@@]1(CCCc2cc(Cl)ccc21)CO3 [Example 115]

Tested on: SKBR3 cells
Test: SKBR3 Cell Viability Assay (CellTiter Glo)
Assay type: cell-based
Details: 72 hours, CellTiter Glo luminescence, read-out: MCL-1 CV SKBR3 EC50
Protocol: SKBR3 Cell Viability Assay Materials
SKBR3 Cells (ATCC HTB-30) were obtained from ATCC (Manassas, Va.) and cultured in McCoy 5A's medium (ATCC 30-2007)+10% fetal bovine serum (SH30071.03, HyClone, Pittsburgh, Pa.) plus 1× Penicillin-Streptomycin L-glutamine (Corning 30-009-C1, Corning, N.Y.)).
The cell viability assay was conducted in a 384-well tissue culture plate (Grenier 781086, Monroe, N.C.) in a total volume of 70 μL. Test compounds were prepared in 1,000×, serially diluted, and pre-spotted into 384-well tissue culture plate by Echo 555 Liquid Handler (Labcyte Inc., San Jose, Calif.). Seventy μl of 6,000 SKBR3 cells were dispensed into each well of the plate and incubated at 37° C. with 5% CO2 for 72 hours. At the end of incubation, 2× CellTiter Glo (CTG) reagents (1 part buffer with 2 parts substrate) (Promega, Madison, Wis.) were prepared, and the plate and the reagent were equilibrated to room temperature for 30 minutes. CTG reagent was added to each plate by Biomek FX at 20 μL/well with 5 times pipetting and mixing to induce cell lysis. Luminescence was read by Envision multimode reader (PerkinElmer). […] Percent inhibition was calculated as followed: % Inhibition=100%*(Well−Neg)/(Pos−Neg) Neg, negative control, DMSO Pos, positive control, 10 μM Puromycin

EC50 [nM]	Compound
899	CCC(=O)NS1(=O)=NC(=O)c2ccc3c(c2)N(C[C@@H]2CC[C@H]2[C@@H](OC)/C=C/CCC1)C[C@@]1(CCCc2cc(Cl)ccc21)CO3 (single isomer, unassigned) [Example 4]
10000	CO[C@H]1/C=C/CCC[S@@](N)(=O)=NC(=O)c2ccc3c(c2)N(C[C@@H]2CC[C@H]21)C[C@@]1(CCCc2cc(Cl)ccc21)CO3 [Example 5]

Compound	EC50 [nM]
CCC(=O)N[S@@]1(=O)=NC(=O)c2ccc3c(c2)N(C[C@@H]2CC[C@H]2[C@@H](OC)CCCCC1)C[C@@]1(CCCc2cc(Cl)ccc21)CO3 [Example 11]	10000
